Measurements reported in PubChem BioAssay (NCI).
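A five-concentration, 48-hour dose response in 96-well plates underlies each endpoint, interpolated linearly between surrounding concentrations. At the GI50, growth is halved. TGI denotes the concentration required for complete inhibition of growth.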

Legend:
Assay in all cases: NCI tumour cell line growth inhibition, 48 h
[1] = tested on: SNB-19 CNS
[2] = tested on: ACHN renal
[3] = tested on: SK-MEL-28 melanoma
[4] = tested on: COLO 205 colon
[5] = tested on: HL-60(TB) leukemia
[6] = tested on: SK-MEL-2 melanoma
[7] = tested on: KM12 colon
[8] = tested on: SW-620 colon
[9] = tested on: BT-549 breast
[10] = tested on: T-47D breast

Structure (SMILES)	TGI [1] [µM]	TGI [2] [µM]	TGI [3] [µM]	TGI [4] [µM]	TGI [5] [µM]	TGI [6] [µM]	TGI [7] [µM]	TGI [8] [µM]	GI50 [1] [µM]	GI50 [2] [µM]	GI50 [3] [µM]	GI50 [4] [µM]	GI50 [6] [µM]	GI50 [7] [µM]	GI50 [8] [µM]	GI50 [9] [µM]	TGI [9] [µM]	TGI [10] [µM]	GI50 [10] [µM]	GI50 [5] [µM]
O=C(/C=C/C1C(=O)NC(=O)NC1=O)CC(=O)C(=O)Nc1cc(Cl)c(Cl)cc1Cl	> 100	> 100	> 100	> 100	> 100	> 100	> 100	> 100	–	–	–	–	–	–	–	–	–	–	–	–
O=c1[nH]cc(C(F)(C(F)(F)F)C(F)(F)F)c(=O)[nH]1	> 100	> 100	> 100	> 100	> 100	> 100	> 100	> 100	–	–	–	–	–	–	–	–	–	–	–	–
Cc1cc2nc(-c3c(F)cccc3Cl)n(Cc3c(F)cccc3Cl)c2cc1C	93.7	45.6	55.2	26.3	–	> 100	37.7	32.4	25.5	14.5	24.8	11.6	50.2	10.5	11.8	18.5	46.2	–	–	–
CC(C)[Si](OCC1CC(C#N)OC(C)(C)O1)(C(C)C)C(C)C (stereo unspecified)	50.8	29.4	> 100	31.7	29.3	30.6	35.9	36	–	–	–	–	–	–	–	–	–	–	–	–
CC(=O)Nc1ccc(-c2nnc(SCC(=O)Nc3ccc(Cl)cc3)o2)cc1	35.7	28.5	27.2	34.6	40.1	49	29	29.8	–	–	–	–	–	–	–	–	–	–	–	–
CSCCCNC(=O)[C@H](CSC)NC(=O)c1csc(CCNC(=O)[C@@H](NSc2ccccc2[N+](=O)[O-])C(C)O)n1 (stereo partly specified)	> 100	> 100	> 100	> 100	> 100	> 100	> 100	> 100	–	–	–	–	–	–	–	–	> 100	–	–	–
CC1=C(N2CC2)C(=O)c2ccccc2C1=O	6.27	1.07	4.33	2.05	17.1	4.06	2.64	1.68	–	–	–	–	–	–	–	–	–	28.7	–	–
Cc1ccc(S(=NS(=O)(=O)c2ccc(C)cc2)c2ccc(C)cc2)cc1	> 100	> 100	> 100	> 100	> 100	–	> 100	> 100	–	–	–	–	–	–	–	–	> 100	> 100	–	–
CC1=CC(=O)NP(=O)(C23CC4CC(CC(C4)C2)C3)N1 (stereo unspecified)	> 100	> 100	> 100	> 100	> 100	> 100	> 100	> 100	–	–	–	–	–	–	–	–	–	–	–	–
NNC(=O)C(O)C(O)C(=O)NN (stereo unspecified)	> 100	> 100	> 100	> 100	–	> 100	> 100	> 100	–	–	–	–	–	–	–	–	> 100	> 100	–	–
CCN(CC)Cc1cc(Nc2c3ccccc3nc3cc(Cl)ccc23)ccc1O	5.27	2.97	3.2	2.3	–	3.36	3.77	3.63	2.04	1.47	1.79	1.05	1.75	1.59	1.18	1.95	3.48	4	1.97	–
COc1ccc2c([nH]c3c(O)c(-c4c(C)cc5c([nH]c6c(CC=C(C)C)c(OC)ccc65)c4O)c(C)cc32)c1CC=C(C)C	> 100	> 100	> 100	> 100	> 100	> 100	> 100	> 100	–	–	–	–	–	–	–	–	–	–	–	–
C/C(=N\NS(=O)(=O)c1ccc([N+](=O)[O-])cc1)c1ccc[n+]([O-])n1	99.1	> 21.7	–	6.56	> 22.6	3.84	33.8	7.99	–	–	–	–	–	–	–	–	–	–	–	–
[CH3][Sn]1([CH3])[O]CC(COc2cc(Cl)c(Cl)cc2Cl)[O]1 (stereo unspecified)	> 100	> 100	> 100	> 100	> 100	> 100	> 100	> 100	> 100	85.5	> 100	> 100	62	45.8	51	–	–	–	–	> 100
C#CCOCn1cnc2ncnc(N)c21	> 100	> 100	> 100	> 100	–	> 100	> 100	> 100	–	–	–	–	–	–	–	–	–	–	–	–
O=C1C=Cc2ncccc2C1=O	> 100	50.6	48.1	32.5	36.1	39.2	> 58.5	31.1	–	–	–	–	–	–	–	–	–	–	–	–
Oc1ccc(Cl)cc1/C=N\NC(=S)N/N=C/c1cc(Cl)ccc1O	> 100	> 100	> 100	41.6	4.23	10.1	44.7	> 100	3.4	2.35	4.58	3.34	1.87	2.68	4.41	–	–	73.4	2.73	1.37
Cc1ccc(/C=N/NS(=O)(=O)c2ccccc2)c(C)c1	–	> 100	> 100	> 100	> 100	> 100	> 100	> 100	–	–	–	–	–	–	–	–	–	–	–	–
CC(=O)OC(=O)O/C=C\CCl	> 100	> 100	> 100	> 100	> 100	> 100	> 100	> 100	–	–	–	–	–	–	–	–	–	–	–	–
Cn1nc(-c2ccccc2)c(C(=O)/C=C/c2ccc(Cl)cc2)c(N2CCCC2)c1=O	21.7	3.34	13.8	4.07	4.97	–	–	21.9	–	–	–	–	–	–	–	–	–	–	–	–
C/C(CC(=O)Nc1cccc([N+](=O)[O-])c1)=N\NC(=O)CC#N	–	–	> 100	> 100	> 100	> 100	> 100	> 100	–	–	–	–	–	–	–	–	–	–	–	–
